Measured values: US12655156B2, “Oxadiazolopyrazines and oxadiazolopyridines useful as mitochondrial uncouplers” (Virginia Tech Intellectual Properties, Inc., priority 2018, dated 2026)

system: whole cells (NMuLi, C2C12, and L6 cells, isolated cardiomyocytes, human primary fibroblasts); test: Oxygen consumption rate (OCR) in whole cells, Seahorse XF-24 Flux Analyzer; format: cell-based; details: increase in OCR; binned EC50 values
Experimental: Biological activities of the compounds synthesized is determined by determining increase in oxygen consumption rate (OCR).
Oxygen consumption rate (OCR) in whole cells is measured in general accordance with the method of Kenwood B M et al. (Mol. Met. (2014) 3:114-123).
OCR is measured using a Seahorse XF-24 Flux Analyzer (Seahorse Biosciences, North Billerica, MA). NMuLi, C2C12, and L6 cells are seeded in a Seahorse 24-well tissue culture plate at a density of 3.5×10^4 cells/well, isolated cardiomyocytes at a density of 4×10^4 cells/well, and human primary fibroblasts at a density of 1.1×10^4 cells/well. The cells are then allowed to adhere for 24 h. Prior to the assay, the media is changed to unbuffered DMEM containing pyruvate and glutamine (Gibco #12800-017, pH=7.4 at 37° C.) and the cells are equilibrated for 30 mins at 37°° C. Compounds are injected during the assay and OCR is measured using 2 min measurement periods.
2-3 wells are used per condition and averaged over three plates (n=6-9). Statistical significance is determined by two-way ANOVA with Bonferroni's posttest.
Activities are reported as binned EC50 values: A=5 μM or less; B=>5 to 20 μM; C=over 20 μM; NA=not active.

SMILES	EC50 [µM]
Cc1cc(Nc2nc3nonc3nc2O)ccc1OCC(F)(F)F [1-89, 6-((3-Methyl-4-(2,2,2-trifluoroethoxy)phenyl)amino)-[1,2,5]oxadiazolo[3,4-b]pyrazin-5-ol]	5 to 20
CCCCC#Cc1ccc(Nc2nc3nonc3nc2O)c(OC(F)(F)F)c1 [1-65, 6-((4-(Hex-1-yn-1-yl)-2-(trifluoromethoxy)phenyl)amino)-[1,2,5]oxadiazolo[3,4-b]pyrazin-5-ol]	5 to 20
Oc1nc2nonc2nc1Nc1ccc(C(O)(C(F)(F)F)C(F)(F)F)cc1 [1-26, 6-((4-(1,1,1,3,3,3-Hexafluoro-2-hydroxypropan-2-yl)phenyl)amino)-[1,2,5]oxadiazolo[3,4-b]pyrazin-5-ol]	> 20
Oc1nc2nonc2nc1Nc1cccc(-c2ccc(C(F)(F)F)cc2)c1 [1-131, 6-((4′-(trifluoromethyl)-[1,1′-biphenyl]-3-yl)amino)-[1,2,5]oxadiazolo[3,4-b]pyrazin-5-ol]	≤ 5
Oc1nc2nonc2nc1Nc1ccc(C(F)(F)F)cc1F [1-16, 6-((2-Fluoro-4-(trifluoromethyl)phenyl)amino)-[1,2,5]oxadiazolo[3,4-b]pyrazin-5-ol]	≤ 5
Oc1nc2nonc2nc1Nc1cccc(-c2ccc3c(c2)OCO3)c1 [1-120, 6-((3-(benzo[d][1,3]dioxol-5-yl)phenyl)amino)-[1,2,5]oxadiazolo[3,4-b]pyrazin-5-ol]	≤ 5
Oc1nc2nonc2nc1Nc1cccc(-c2cc(F)cc(F)c2)c1 [1-119, 6-((3′,5′-difluoro-[1,1′-biphenyl]-3-yl)amino)-[1,2,5]oxadiazolo[3,4-b]pyrazin-5-ol]	≤ 5
Oc1nc2nonc2cc1Nc1cccc(OC(F)(F)F)c1 [1-229, 6-((3-(trifluoromethoxy)phenyl)amino)-[1,2,5]oxadiazolo[3,4-b]pyridin-5-ol]	5 to 20
Oc1nc2nonc2nc1Nc1cccc(OC(F)(F)F)c1 [1-9, 6-((3-(Trifluoromethoxy)phenyl)amino)-[1,2,5]oxadiazolo[3,4-b]pyrazin-5-ol]	≤ 5
Cc1ccc(CNc2nc3nonc3nc2O)cc1 [1-78, 6-((4-methylbenzyl)amino)-[1,2,5]oxadiazolo[3,4-b]pyrazin-5-ol]	> 20
Oc1nc2nonc2nc1Nc1ccc(OC(F)(F)Cl)cc1 [1-29, 6-((4-(Chlorodifluoromethoxy)phenyl)amino)-[1,2,5]oxadiazolo[3,4-b]pyrazin-5-ol]	≤ 5
CCCCCCc1ccc(Nc2nc3nonc3nc2O)c(OC(F)(F)F)c1 [1-70, 6-((4-hexyl-2-(trifluoromethoxy)phenyl)amino)-[1,2,5]oxadiazolo[3,4-b]pyrazin-5-ol]	5 to 20
Oc1nc2nonc2nc1Nc1ccc(-c2cccc(OC(F)(F)F)c2)cc1 [1-111, 6-((3′-(trifluoromethoxy)-[1,1′-biphenyl]-4-yl)amino)-[1,2,5]oxadiazolo[3,4-b]pyrazin-5-ol]	5 to 20
Oc1nc2nonc2nc1Nc1ccc(I)cc1 [1-19, 6-((4-Iodophenyl)amino)-[1,2,5]oxadiazolo[3,4-b]pyrazin-5-ol]	5 to 20
Oc1nc2nonc2nc1Nc1ccc(OC(F)(F)F)cc1Cl [1-41, 6-((2-Chloro-4-(trifluoromethoxy)phenyl)amino)-[1,2,5]oxadiazolo[3,4-b]pyrazin-5-ol]	≤ 5
CCCCc1ccc(Nc2nc3nonc3nc2O)c(F)c1 [1-55, 6-((4-Butyl-2-fluorophenyl)amino)-[1,2,5]oxadiazolo[3,4-b]pyrazin-5-ol]	≤ 5
O=[N+]([O-])c1cc(Nc2nc3nonc3nc2O)ccc1OC(F)(F)F [1-40, 6-((3-Nitro-4-(trifluoromethoxy)phenyl)amino)-[1,2,5]oxadiazolo[3,4-b]pyrazin-5-ol]	> 20
Oc1nc2nonc2nc1Nc1cccc(-c2ccc(OC(F)F)cc2)c1 [1-113, 6-((4′-(difluoromethoxy)-[1,1′-biphenyl]-3-yl)amino)-[1,2,5]oxadiazolo[3,4-b]pyrazin-5-ol]	≤ 5
Oc1nc2nonc2nc1Nc1ccc(C(F)(F)F)nc1 [1-208, 6-((6-(trifluoromethyl)pyridin-3-yl)amino)-[1,2,5]oxadiazolo[3,4-b]pyrazin-5-ol]	> 20
Oc1nc2nonc2cc1Nc1cccc(C(F)(F)F)c1F [1-232, 6-((2-fluoro-3-(trifluoromethyl)phenyl)amino)-[1,2,5]oxadiazolo[3,4-b]pyridin-5-ol]	> 20
Oc1nc2nonc2nc1Nc1ccc(-c2ccc(F)c(C(F)F)c2)cc1 [1-109, 6-((3′-(difluoromethyl)-4′-fluoro-[1,1′-biphenyl]-4-yl)amino)-[1,2.5]oxadiazolo[3.4-b]pyrazin-5-ol]	≤ 5
Oc1nc2nonc2nc1Nc1ccc2ccccc2c1 [1-44, 6-(Naphthalen-2-ylamino)-[1,2,5]oxadiazolo[3,4-b]pyrazin-5-ol]	≤ 5

SMILES	EC50 [µM]
Oc1nc2nonc2nc1Nc1ccc(Br)cc1F [1-43, 6-((4-Bromo-2-fluorophenyl)amino)-[1,2,5]oxadiazolo[3,4-b]pyrazin-5-ol]	≤ 5
Oc1nc2nonc2nc1Nc1cccc(F)c1 [1-4, 6-((3-Fluorophenyl)amino)-[1,2,5]oxadiazolo[3,4-b]pyrazin-5-ol]	> 20
Oc1nc2nonc2cc1Nc1cccc(C(F)(F)F)c1 [1-234, 6-((3-(trifluoromethyl)phenyl)amino)-[1,2,5]oxadiazolo[3,4-b]pyridin-5-ol]	> 20
CCCCCCc1ccc(Nc2nc3nonc3nc2O)cc1 [1-72, 6-((4-hexylphenyl)amino)-[1,2,5]oxadiazolo[3,4-b]pyrazin-5-ol]	5 to 20
Oc1nc2nonc2cc1Nc1cccc(F)c1F [1-250, 6-((2,3-difluorophenyl)amino)-[1,2,5]oxadiazolo[3,4-b]pyridin-5-ol]	≤ 5
CCc1ccc(Nc2nc3nonc3nc2O)c(F)c1 [1-68, 6-((4-ethyl-2-fluorophenyl)amino)-[1,2,5]oxadiazolo[3,4-b]pyrazin-5-ol]	5 to 20
Oc1nc2nonc2nc1Nc1cc(C(F)(F)F)cc(C(F)(F)F)c1 [1-34, 6-((3,5-Bis(trifluoromethyl)phenyl)amino)-[1,2,5]oxadiazolo[3,4-b]pyrazin-5-ol]	5 to 20
Oc1nc2nonc2nc1Nc1ccccc1 [1-52, 6-(Phenylamino)-[1,2,5]oxadiazolo[3,4-b]pyrazin-5-ol]	> 20
COc1cc(OC(F)(F)F)ccc1Nc1nc2nonc2nc1O [1-22, 6-((2-Methoxy-4-(trifluoromethoxy)phenyl)amino)-[1,2,5]oxadiazolo[3,4-b]pyrazin-5-ol]	≤ 5
O=C1c2ccccc2-c2ccc(Nc3nc4nonc4nc3O)cc21 [1-127, 2-((6-hydroxy-[1,2,5]oxadiazolo[3,4-b]pyrazin-5-yl)amino)-9H-fluoren-9-one]	> 20
CC(Nc1nc2nonc2nc1O)C12CC3CC(CC(C3)C1)C2 [1-83, 6-((1-((1S,3S)-adamantan-1-yl)ethyl)amino)-[1,2,5]oxadiazolo[3,4-b]pyrazin-5-ol]	5 to 20
CCCCCc1ccc(Nc2nc3nonc3nc2O)c(F)c1 [1-66, 6-((2-Fluoro-4-pentylphenyl)amino)-[1,2,5]oxadiazolo[3,4-b]pyrazin-5-ol]	≤ 5
Oc1nc2nonc2nc1Nc1ccc(OC(F)(F)F)c(-c2ccc(C(F)(F)F)nc2)c1 [1-117, 6-((4-(trifluoromethoxy)-3-(6-(trifluoromethyl)pyridin-3-yl)phenyl)amino)-[1,2,5]oxadiazolo[3,4-b]pyrazin-5-ol]	5 to 20
Oc1nc2nonc2nc1Nc1ccc(OCC(F)(F)F)c(F)c1 [1-90, 6-((3-Fluoro-4-(2,2,2-trifluoroethoxy)phenyl)amino)-[1,2,5]oxadiazolo[3,4-b]pyrazin-5-ol]	5 to 20
Oc1nc2nonc2nc1NC(c1ccccc1)c1ccccc1 [1-79, 6-(benzhydrylamino)-[1,2,5]oxadiazolo[3,4-b]pyrazin-5-ol]	> 20
Oc1nc2nonc2nc1Nc1cccc(S(F)(F)(F)(F)F)c1 [1-31, 6-((3-(Pentafluoro-16-sulfaneyl)phenyl)amino)-[1,2,5]oxadiazolo[3,4-b]pyrazin-5-ol]	≤ 5
Oc1nc2nonc2nc1Nc1ccc(-c2ccc(OC(F)F)cc2)cc1 [1-108, 6-((4′-(difluoromethoxy)-[1,1′-biphenyl]-4-yl)amino)-[1,2,5]oxadiazolo[3,4-b]pyrazin-5-ol]	≤ 5
Oc1nc2nonc2cc1Nc1ccc(C(F)(F)F)cc1 [1-242, 6-((4-(trifluoromethyl)phenyl)amino)-[1,2,5]oxadiazolo[3,4-b]pyridin-5-ol]	> 20
Oc1nc2nonc2nc1Nc1ccc(OCCCC(F)(F)F)c(C(F)(F)F)c1 [1-100, 6-((4-(4,4,4-trifluorobutoxy)-3-(trifluoromethyl)phenyl)amino)-[1,2,5]oxadiazolo[3,4-b]pyrazin-5-ol]	≤ 5
COc1ccccc1Nc1nc2nonc2nc1O [1-94, 6-((2-methoxyphenyl)amino)-[1,2,5]oxadiazolo[3,4-b]pyrazin-5-ol]	> 20
Oc1nc2nonc2nc1Nc1ccc(OCCCC(F)(F)F)c(F)c1 [1-99, 6-((3-fluoro-4-(4,4,4-trifluorobutoxy)phenyl)amino)-[1,2,5]oxadiazolo[3,4-b]pyrazin-5-ol]	≤ 5
Oc1nc2nonc2nc1Nc1cc(C(F)(F)F)ccc1F [1-17, 6-((2-Fluoro-5-(trifluoromethyl)phenyl)amino)-[1,2,5]oxadiazolo[3,4-b]pyrazin-5-ol]	5 to 20
